From patent US20260001967A1, “SYNTHETIC HEXASACCHARIDES MIMICS OF HEPARIN SHOWING HEPARANASE INHIBITION ACTIVITY” (CENTRO ALTA TECNOLOGIA ISTITUTO DI RICERCHE CHIMICHE E …, priority 2022, published 2026)
Like-named read-outs stand apart in the source and are kept apart here.

What was measured:
heparanase [1] = target: T1, heparanase (Homo sapiens, UniProt Q9Y251); test: Heparanase inhibition assay based on cleavage of fondaparinux, disaccharide assayed by colorimetry (Hammond); assay type: biochemical; details: for Inhibition of heparanase: over the concentration range tested
T1 sequence (Q9Y251 158-543 limits assumed): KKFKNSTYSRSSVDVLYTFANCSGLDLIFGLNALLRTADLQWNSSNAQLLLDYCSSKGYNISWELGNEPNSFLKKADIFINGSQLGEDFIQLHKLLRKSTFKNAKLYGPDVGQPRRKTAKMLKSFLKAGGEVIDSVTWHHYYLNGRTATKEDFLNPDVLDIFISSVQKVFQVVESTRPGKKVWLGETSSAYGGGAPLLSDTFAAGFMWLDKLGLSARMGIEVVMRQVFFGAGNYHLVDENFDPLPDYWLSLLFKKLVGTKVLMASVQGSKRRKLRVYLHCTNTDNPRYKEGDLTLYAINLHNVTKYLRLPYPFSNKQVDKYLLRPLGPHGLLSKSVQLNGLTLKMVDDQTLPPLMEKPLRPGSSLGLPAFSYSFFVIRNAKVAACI
T1 sequence (Q9Y251 36-109 limits assumed): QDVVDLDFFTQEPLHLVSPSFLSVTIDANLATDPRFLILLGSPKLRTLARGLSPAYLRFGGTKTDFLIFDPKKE
Text: To prepare 12 we adopted (Scheme 1) a classical disaccharide building-block approach (C. Tabeur et al., Oligosaccharides corresponding to the regular sequence of heparin: chemical synthesis and interaction with FGF-2. Bioorg. Med. Chem. 1999, 7, 2003-2012) based on the trichloroacetimidate glycosylation method (R. R. Schmidt, W. Kinzy, Adv. Carbohydr. Chem. Biochem. 1992, 50, 21-123). […] The hexasaccharide sequence was completed by reaction under similar conditions with the trichloroacetimidate disaccharide 8 itself classically obtained from 6. […] After saponification to remove the acetyl groups and cleave the methyl esters, preparative HPLC allowed to separate 10 from its β-anomer. […] The glycol-split derivatives were then obtained (Scheme 2). […] The inhibition of heparanase was evaluated using an assay based on the cleavage of the synthetic heparin pentasaccharide fondaparinux (Arixtra®; Aspen). Cleavage of fondaparinux by heparanase, yields a disaccharide that is assayed by colorimetry. The assay was essentially performed as described by Hammond (E. Hammond, C. P. Li, V. Ferro, Development of a colorimetric assay for heparanase activity suitable for kinetic analysis and inhibitor screening, Anal. Biochem. 396 (2010), 112-116, http://doi.10.1016/j.ab.2009.09.007.
Serial dilutions of the compounds and of the reference roneparstat were tested. IC50 values were ultimately determined using GraphPad software.

heparanase [2] = target: T1, heparanase; details: cited from earlier work

Molecule | Inhibition of heparanase (heparanase [1]) | further results
COC1OC(COS(=O)(=O)O)C(OC2OC(C(=O)O)C(OC3OC(COS(=O)(=O)O)C(OC4OC(C(=O)O)C(OC5OC(COS(=O)(=O)O)C(OC6OC(C(=O)O)C(OC)C(O)C6OS(=O)(=O)O)C(O)C5NC(C)=O)C(O)C4O)C(O)C3NC(C)=O)C(O)C2OS(=O)(=O)O)C(O)C1NC(C)=O (stereo not drawn) [Compound 16] | hardly detectable | 
GlcN(Ns,6s)-GlcA(gs)-GlcN(Ns,1,6anh) |  | IC50 (heparanase [2]): 2 mg/L
Roneparstat [reference compound] |  | IC50 (heparanase [1]): 0.006 mg/L

The next lines start with results.

Inhibition of heparanase (heparanase [1]) | Molecule | further results
hardly detectable | COC1OC(COS(=O)(=O)O)C(OC2OC(C(=O)O)C(OC3OC(COS(=O)(=O)O)C(OC4OC(C(=O)O)C(OC5OC(COS(=O)(=O)O)C(OC6OC(C(=O)O)C(OC)C(O)C6OS(=O)(=O)O)C(O)C5N)C(O)C4O)C(O)C3N)C(O)C2OS(=O)(=O)O)C(O)C1N (stereo not drawn) [Compound 12] | 
hardly detectable | COC1OC(COS(=O)(=O)O)C(OC2OC(C(=O)O)C(OC3OC(COS(=O)(=O)O)C(OC4OC(C(=O)O)C(OC5OC(COS(=O)(=O)O)C(OC6OC(C(=O)O)C(OC)C(O)C6OS(=O)(=O)O)C(O)C5NS(=O)(=O)O)C(O)C4O)C(O)C3NS(=O)(=O)O)C(O)C2OS(=O)(=O)O)C(O)C1NS(=O)(=O)O (stereo not drawn) [Compound 13] | IC50 (heparanase [1]; Table 1, hexasaccharides, read-out: IC50): > 29.4 µM
